Reference: patent US9003693B2, “Control of zebra mussels in closed service water systems” (ASI Group Ltd., priority 2013, dated 2015)
Like-named read-outs stand apart in the source and are kept apart here. Marks after values point to notes of the source that are not given here.

Assays:
adult zebra mussels = tested on: adult zebra mussels
Method: Laboratory research was carried out to investigate potash for mussel control by itself or in combination with oxidizing agents such as chlorine or hydrogen peroxide.
Experiments were carried out with adult zebra mussels using potassium chloride (KCl) alone, as well as chloramine, hydrogen peroxide and combinations thereof to determine the estimated time to 95% mortality. Experimentation was carried out at 100 mg/L K^+ and test temperatures ranged from 2 to 30° C.

Rainbow trout = experiment: KCl toxicity test on non-target species (EPS protocol); format: in vivo; conditions: acute test
Method: (§1) Studies were performed to investigate the environmental effects on non-target species of treatment with concentrations of potassium effective for controlling zebra mussels. As set out below, potassium when discharged at concentrations of 100 mg/l or less is an environmentally benign method of zebra mussel control. This is an important advantage over other methods of controlling zebra mussels such as by the use of chlorine or other oxidizing agents which can result in significant non-target species toxicity.
(§2) A stock solution at 1000 mg/l KCl was used to set all tests. Dilutions were made from these stocks. Test methods were as dictated by EPS protocols for each test organism.

Ceriodaphnia dubia = experiment: as above; format: in vivo
Method: as §1, §2

Fathead minnow = experiment: as above; format: in vivo
Method: as §1, §2

Daphnia magna = experiment: as above; format: in vivo; conditions: acute test
Method: as §1, §2

[1] = tested on: young adult (<1.5 cm) zebra mussels; experiment: Flow-through contact chamber mortality study, adult mussels; format: in vivo; conditions: for Final mortality of adult mussels: end of the 52 day trial
Method: (§3) Mortality studies using flow through contact chambers were performed with young adult (<1.5 cm) zebra mussels and naturally occurring veliger populations at a small tributary of a canal located in southern Ontario, Canada. Water temperatures ranged between 20 and 25° C. throughout the trial.
Adult zebra mussels were exposed to three concentrations of K^+ (40 mg/l, 30 mg/l, and 20 mg/l) as well as a control chamber. Each concentration as well as the control was replicated three times. The nature of the design allowed for simultaneous trials with adults and veligers. Sixty adult mussels (six groups of ten) were exposed in each replicate test concentration and control tank. Mussels were contained in PVC mesh baskets which allowed free flow of water while maintaining the mussels in discrete groups of ten.
(§4) A concentrated potassium solution was metered into each replicate test line prior to its entering the test tanks from a pre-mixed batch tank. Potassium source was commercial grade potash which was 60% potassium by weight. The potassium concentration was controlled through differential metering rates. Flow-through trials were carried out for 52 days at which point final mortality in adults was recorded.

[2] = tested on: naturally occurring veliger larvae; experiment: Larval settlement on PVC settling plates in flow-through tanks; format: in vivo, zebra mussel (Dreissena polymorpha); conditions: 52 day trial period; for Larval (veliger) settlement: 30 mg/l K+
Method: as §3
In addition to adult trials, six PVC settling plates were installed in one replicate tank at each test concentration as well as the control. The presence of naturally occurring veliger larvae in the water source provided the opportunity of determining settling rates at each test concentration.
as §4

SMILES: [Cl-].[K+] [KCl, potassium chloride]
- Estimated time (hours) to 95% mortality (adult zebra mussels; KCl at 100 mg/L K+, 10-12 °C, extrapolated value): 283* hours
- Estimated time (hours) to 95% mortality (adult zebra mussels; KCl at 100 mg/L K+, 12-14 °C): 165 h
- Estimated time (hours) to 95% mortality (adult zebra mussels; KCl at 100 mg/L K+, 13-17 °C): 113 h
- Estimated time (hours) to 95% mortality (adult zebra mussels; KCl at 100 mg/L K+, 14-26 °C): 22 h
- Estimated time (hours) to 95% mortality (adult zebra mussels; KCl at 100 mg/L K+, 20-21 °C): 56 h
- Estimated time (hours) to 95% mortality (adult zebra mussels; KCl at 100 mg/L K+, 22-24 °C, extrapolated value): 33* hours
- LC50 (Rainbow trout): 1248.4 µg/mL
- IC25 (Ceriodaphnia dubia): 189.3 µg/mL
- IC50 (Ceriodaphnia dubia): 256.8 µg/mL
- LC50 (Ceriodaphnia dubia): 219.6 µg/mL
- GROWTH/REPRODUCTIVE DATA LOEC (Ceriodaphnia dubia; NED = no effect detected): NED
- GROWTH/REPRODUCTIVE DATA NOEC (Ceriodaphnia dubia; NED = no effect detected): NED
- GROWTH/REPRODUCTIVE DATA TEC (Ceriodaphnia dubia; NED = no effect detected): NED
- SURVIVAL DATA LOEC (Ceriodaphnia dubia; chronic test): 385 mg/L
- SURVIVAL DATA NOEC (Ceriodaphnia dubia; chronic test): 193 mg/L
- SURVIVAL DATA TEC (threshold effect concentration) (Ceriodaphnia dubia; chronic test): 272.6 mg/L
- IC25 (Fathead minnow): 736.2 µg/mL
- IC50 (Fathead minnow): 892.5 µg/mL
- LC50 (Fathead minnow): 512.7 µg/mL
- GROWTH/REPRODUCTIVE DATA LOEC (Fathead minnow; NED = no effect detected): NED
- GROWTH/REPRODUCTIVE DATA NOEC (Fathead minnow; NED = no effect detected): NED
- GROWTH/REPRODUCTIVE DATA TEC (Fathead minnow; NED = no effect detected): NED
- SURVIVAL DATA LOEC (Fathead minnow; chronic test): 603 mg/L
- SURVIVAL DATA NOEC (Fathead minnow; chronic test): 302 mg/L
- SURVIVAL DATA TEC (threshold effect concentration) (Fathead minnow; chronic test): 426.7 mg/L
- LC50 (Daphnia magna): 188.8 µg/mL

SMILES: NCl [chloramine]
- Estimated time (hours) to 95% mortality (adult zebra mussels; chloramine 0.5 mg/L, 10-12 °C, extrapolated value): 480* hours
- Estimated time (hours) to 95% mortality (adult zebra mussels; chloramine 0.5 mg/L, 14-26 °C, extrapolated value): 97* hours
- Estimated time (hours) to 95% mortality (adult zebra mussels; chloramine 1.0 mg/L, 10-12 °C): 258 h
- Estimated time (hours) to 95% mortality (adult zebra mussels; chloramine 1.0 mg/L, 13-17 °C): 209 h
- Estimated time (hours) to 95% mortality (adult zebra mussels; chloramine 1.0 mg/L, 14-26 °C): 60 h
- Estimated time (hours) to 95% mortality (adult zebra mussels; chloramine 2.0 mg/L, 13-17 °C): 87 h

SMILES: [K+] [potassium cation]
- Final mortality of adult mussels ([1]; 20 mg/l K+, water 20-25 °C): 73%
- Final mortality of adult mussels ([1]; 30 mg/l K+, water 20-25 °C): 91%
- Mortality of a target population ([1]; 40 mg/L potassium, within two weeks, water temperatures above 15 °C): up to 100%
- Time to complete mortality of adult mussels ([1]; 40 mg/l K+, flow-through, water 20-25 °C): ≤ 25 days
- Mortality of zebra mussels over time (in words) ([1]; 40 mg/l potassium): significant mortality within two weeks and complete mortality in this trial in just over three weeks
- Zebra mussel mortality (adult zebra mussels; 100 mg/L potassium, in 48 hours, water temperatures above 15 °C): 100%
- Estimated time (hours) to 95% mortality (adult zebra mussels; KCl at 100 mg/L K+, 14-26 °C): 22 h
- Larval (veliger) settlement [2]: No larval settlement was detected
- Larval (veliger) settlement ([2]; listed as Potassium): effective at preventing settlement of veligers
- Larval settlement ([2]; 40 mg/l K+): No larval settlement was detected

SMILES: OO [H2O2, hydrogen peroxide]
- Estimated time (hours) to 95% mortality (adult zebra mussels; H2O2 5 mg/L, 12-14 °C, extrapolated value): 1714* hours
- Estimated time (hours) to 95% mortality (adult zebra mussels; H2O2 5 mg/L, 20-21 °C, extrapolated value): 455* hours
- Estimated time (hours) to 95% mortality (adult zebra mussels; H2O2 5 mg/L, 22-24 °C, extrapolated value): 294* hours
- Estimated time (hours) to 95% mortality (adult zebra mussels; H2O2 10 mg/L, 12-14 °C): 227 h
- Estimated time (hours) to 95% mortality (adult zebra mussels; H2O2 10 mg/L, 20-21 °C): 36 h
- Estimated time (hours) to 95% mortality (adult zebra mussels; H2O2 10 mg/L, 22-24 °C): 21 h
